Experiments:
[1] = molecular target: T1, Vasoactive intestinal polypeptide receptor 2 (Homo sapiens) (UniProt P41587); test: (§1) Antagonist activity at recombinant human N-terminal signal peptide/FLAG epitope-tagged Rluc8-fused VIPR2 expressed in HEK293 cells assessed as inhibition of VIP-induced human mVenus-beta-arrestin2 binding at 5 uM preincubated for 5 mins with luciferin, coelenterazine H followed by VIP addition measured after 5 mins by BRET assay relative to control; type: cell-based
T1 sequence (whole entry): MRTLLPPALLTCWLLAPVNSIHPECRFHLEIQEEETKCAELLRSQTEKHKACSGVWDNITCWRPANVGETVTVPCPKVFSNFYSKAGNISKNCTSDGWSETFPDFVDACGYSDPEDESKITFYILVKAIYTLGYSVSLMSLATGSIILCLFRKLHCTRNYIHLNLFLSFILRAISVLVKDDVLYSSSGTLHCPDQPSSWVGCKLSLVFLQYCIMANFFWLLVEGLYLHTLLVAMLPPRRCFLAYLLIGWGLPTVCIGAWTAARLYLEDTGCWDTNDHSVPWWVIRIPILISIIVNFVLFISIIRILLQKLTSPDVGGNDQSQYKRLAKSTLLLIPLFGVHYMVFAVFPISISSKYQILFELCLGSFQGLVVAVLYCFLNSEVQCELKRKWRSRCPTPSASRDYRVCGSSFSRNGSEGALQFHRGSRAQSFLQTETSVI

[2] = molecular target: T1, Vasoactive intestinal polypeptide receptor 2 (Homo sapiens); test: (§2) Antagonist activity at recombinant human N-terminal signal peptide/FLAG epitope-tagged VIPR2 expressed in HEK293 cells co-expressing CAMYEL assessed as inhibition of VIP-induced cAMP accumulation at 1 uM preincubated for 5 mins with luciferin, coelenterazine H followed by VIP addition measured after 5 mins by BRET assay relative to control; type: functional, cell-based
[3] = molecular target: T1, Vasoactive intestinal polypeptide receptor 2 (Homo sapiens); test: as §2, with “0.5” for “1”; type: functional, cell-based
[4] = molecular target: T1, Vasoactive intestinal polypeptide receptor 2 (Homo sapiens); test: as §2, with “5” for “1”; type: functional, cell-based
[5] = molecular target: T1, Vasoactive intestinal polypeptide receptor 2 (Homo sapiens); test: as §1, with “at 1” for “at 5”; type: cell-based
[6] = molecular target: T1, Vasoactive intestinal polypeptide receptor 2 (Homo sapiens); test: as §1, with “at 0.5” for “at 5”; type: cell-based

inhibition [1] [%]	inhibition [2] [%]	inhibition [3] [%]	inhibition [4] [%]	inhibition [5] [%]	inhibition [6] [%]	Compound
30.8	7.2 to 22.1	2.4	22.1 to 23.6	–	–	O=C(NCc1ccc(F)cc1F)[C@H](Cc1ccccc1)C[C@H](O)CNS(=O)(=O)c1ccc([N+](=O)[O-])cc1
-0.2	7.8	5.4	7.3	7.2	3.55 to 9.4	C#CCNC(=O)[C@H](Cc1ccccc1)C[C@H](O)CNS(=O)(=O)c1ccc([N+](=O)[O-])cc1
1.3	-2.5	-7.5	-0.3	-6.1	-5.7 to 0.5	O=C(NC1CCCC1)[C@@H](Cc1ccccc1)C[C@H](O)CNS(=O)(=O)c1ccc([N+](=O)[O-])cc1
9.2	-4.9	-2.1	4.7	17.1	6.95 to 17.4	O=C(NC1CCCC1)[C@H](Cc1ccccc1)C[C@H](O)CNS(=O)(=O)c1ccc([N+](=O)[O-])cc1
24	4.7 to 13.8	-5.4	13.8 to 18.2	20	21.1 to 23.9	O=C(NCc1ccc(F)cc1F)[C@@H](Cc1ccccc1)C[C@H](O)CNS(=O)(=O)c1ccc([N+](=O)[O-])cc1
-2.4	5.6	1.7	12.9	-5.4	–	O=C(NC1CCCCCC1)[C@H](Cc1ccccc1)C[C@H](O)CNS(=O)(=O)c1ccc([N+](=O)[O-])cc1
–	4.4	-7.9	-0.1	3	-5.2 to 23.3	C[C@H](CC(C)(C)C)NC(=O)[C@H](Cc1ccccc1)C[C@H](O)CNS(=O)(=O)c1ccc([N+](=O)[O-])cc1
–	-0.4	-7.1	-6.2	0.1	-9.25 to 15.2	CCNC(=O)[C@H](Cc1ccccc1)C[C@H](O)CNS(=O)(=O)c1ccc([N+](=O)[O-])cc1
-7.6	-0.9	–	–	6	-10 to 14.9	CCNC(=O)[C@@H](Cc1ccccc1)C[C@H](O)CNS(=O)(=O)c1ccc([N+](=O)[O-])cc1
–	3.6	6.7	2.1	–	-6.5 to 10.4	NC(=O)[C@H](Cc1ccccc1)C[C@H](O)CNS(=O)(=O)c1ccc([N+](=O)[O-])cc1
0.3	–	-5.8	3	–	1.65 to 7	O=C([C@@H](Cc1ccccc1)C[C@H](O)CNS(=O)(=O)c1ccc([N+](=O)[O-])cc1)N1CCOCC1
-2.8	-4.8	-4.8	0.5	–	–	O=C([C@H](Cc1ccccc1)C[C@H](O)CNS(=O)(=O)c1ccc([N+](=O)[O-])cc1)N1CCCCC1
-4.5	4.4	2.1	6.2	–	-8.4 to 0.85	O=C([C@H](Cc1ccccc1)C[C@H](O)CNS(=O)(=O)c1ccc([N+](=O)[O-])cc1)N1CCC(CO)CC1
-2.7	-8.4	0.5	–	1.2	-6.6 to -3.6	CCN(CC)C(=O)[C@@H](Cc1ccccc1)C[C@H](O)CNS(=O)(=O)c1ccc([N+](=O)[O-])cc1

Further lines, the compound ahead of its results:

Compound	inhibition [1] [%]	inhibition [2] [%]	inhibition [3] [%]	inhibition [4] [%]	inhibition [5] [%]	inhibition [6] [%]
CC(C)(C)c1ccc(S(=O)(=O)NC[C@@H](O)C[C@@H](Cc2ccccc2)C(=O)N[C@H]2c3ccccc3C[C@H]2O)cc1	56.7	13	9.7	72.1	18.1	0
O=C(N[C@H]1c2ccccc2C[C@H]1O)[C@H](Cc1ccccc1)C[C@H](O)CNS(=O)(=O)c1ccccc1F	52	22.3	28.6	28.3	28.3	5.3 to 40.1
O=C(NC[C@@H](O)C[C@@H](Cc1ccccc1)C(=O)N[C@H]1c2ccccc2C[C@H]1O)c1ccncc1	-8.8	19.2	14.2	21	10.9	–
O=C(CCCCl)NC[C@@H](O)C[C@@H](Cc1ccccc1)C(=O)N[C@H]1c2ccccc2C[C@H]1O	21.1	18.2	16.4	15.9	24.3	18.5 to 19.2
NC[C@@H](O)C[C@@H](Cc1ccccc1)C(=O)N[C@H]1c2ccccc2C[C@H]1O	19.7	7.4 to 15.9	11.8	7.4 to 15.2	1.4	3.7 to 17.4
Nc1ccc(S(=O)(=O)NC[C@@H](O)C[C@@H](Cc2ccccc2)C(=O)N[C@H]2c3ccccc3C[C@H]2O)cc1	6.7	18.6	8.4	33.3	-5.5	-5.6 to 20
O=C(N[C@H]1c2ccccc2C[C@H]1O)[C@H](Cc1ccccc1)C[C@H](O)CNS(=O)(=O)c1cccc([N+](=O)[O-])c1	33.4	15.2	18.4	21.3	35.1	24.2 to 27.4
CCC(=O)Nc1ccc(S(=O)(=O)NC[C@@H](O)C[C@@H](Cc2ccccc2)C(=O)N[C@H]2c3ccccc3C[C@H]2O)cc1	–	1.5	0.6	26.9	-1.2	-3.4 to 8.25
CO[C@@H]1Cc2ccccc2[C@@H]1NC(=O)[C@H](Cc1ccccc1)C[C@H](O)CNS(=O)(=O)c1ccc([N+](=O)[O-])cc1	-10	5.9	15.7	5.9	–	-7.1 to -2.05
O=C(N[C@H]1c2ccccc2C[C@H]1O)[C@H](Cc1ccccc1)C[C@H](O)CNS(=O)(=O)c1ccc(C(=O)N2CCCCC2)cc1	–	-7.3	-5.3	-1.4	–	-6.85 to 0
CC(C)C(=O)NC[C@@H](O)C[C@@H](Cc1ccccc1)C(=O)N[C@H]1c2ccccc2C[C@H]1O	–	2.6	0.7	-0.9	–	–
Cc1ccc([N+](=O)[O-])cc1S(=O)(=O)NC[C@@H](O)C[C@@H](Cc1ccccc1)C(=O)N[C@H]1c2ccccc2C[C@H]1O	-0.6	13.6	10.9	18.3	-3.8	–
CO[C@@H]1Cc2ccccc2[C@@H]1NC(=O)[C@H](Cc1ccccc1)C[C@H](O)CN(C)S(=O)(=O)c1ccc([N+](=O)[O-])cc1	–	11.3	21.1	26	–	4.9 to 6.9
O=C(CCCCBr)NC[C@@H](O)C[C@@H](Cc1ccccc1)C(=O)N[C@H]1c2ccccc2C[C@H]1O	–	12.9	11.7	9.4	–	-0.6 to 1.7
O=C(NC[C@@H](O)C[C@@H](Cc1ccccc1)C(=O)N[C@H]1c2ccccc2C[C@H]1O)c1cccc(CCl)c1	–	2.3	0.5	15.1	5.7	-8.1 to 2.4

— ChEMBL document CHEMBL3879914, “Inhibitors of central nervous system vasoactive inhibitory peptide receptor 2” (2014)
